Test results taken from patent US20210338842A1, “DUAL-MODALITY NANOPROBE TARGETING GLIOBLASTOMA AND PREPARATION METHOD THEREOF” (West China Hospital of Sichuan University, priority 2020, published 2021).

Assay: Evaluation of restricted permeability of in vitro BBB model with fluorescein sodium (Transwell)
Format: in vitro ADME, mouse
Details: NaFl 10 μg/mL in upper chamber, read-out: permeability coefficient Papp
Protocol: Experimental method: an in vitro blood-brain barrier model was established to evaluate the permeability of dual-modality nanoprobes. U87-MG cells and bEnd.3 cells were cultured in high glucose DMEM containing 10% fetal bovine serum and 1% penicillin/streptomycin at 37° C. and 5% CO2. A thin layer of collagen solution was evenly coated on the inner side of Transwell poly microporous lipid membrane, the membrane was placed on an ultra-clean table for about 30 min, and it was used after naturally dried. bEnd.3 cells were inoculated into the upper chamber of a 24-well Transwell at a density of 5×10^4 cells/well. Two days later, U87-MG cells were inoculated into the lower chamber of the upper chamber at a density of 1×10^5 cells/well, and the two kind of cells were continued to co-culture for one week.
The permeability of BBB in vitro was evaluated by fluorescein sodium, and a series of standard solutions of fluorescein sodium (NaFl) were prepared with PBS, with the concentrations of 0.05, 0.10, 0.15, 0.20, 0.25, 0.30, 0.35, 0.40, 0.45 and 0.50 μg/mL, respectively. The absorbance value was measured with a multifunctional ELISA reader (the excitation wavelength was set at 485 nm and the detection wavelength was 535 nm). Then the standard curve of NaFl concentration and absorbance value was made. […]

Papp A→B at 10 μg/mL (mouse, BBB model group, 30, 60, 90 min): 11.2 ± 0.73 ×10⁻⁶ cm/s
Papp at 10 μg/mL (small blank chamber (no cells)): 67.8 ×10⁻⁶ cm/s
Compound: O=C1OC2(c3ccc(O)cc3Oc3cc(O)ccc32)c2ccccc21 [NaFl, Fluorescein sodium]
